In ChEMBL document CHEMBL5131389, “PSMA-targeted small-molecule docetaxel conjugate: Synthesis and preclinical evaluation” (Eur J Med Chem, 2022):
≈ marks a conversion by molar mass, not a printed value. Where “and” joins values, the source holds several entries; their conditions need not be identical. Identical values can stand only once. Calls of active or inactive are those of the source. The rule behind the calls is not given here.

How the values were obtained:
[1] = molecular target: Glutamate carboxypeptidase 2 (Homo sapiens, UniProt Q04609); assay: Inhibition of GCPII (unknown origin)
Sequence of Glutamate carboxypeptidase 2 (Q04609 whole entry): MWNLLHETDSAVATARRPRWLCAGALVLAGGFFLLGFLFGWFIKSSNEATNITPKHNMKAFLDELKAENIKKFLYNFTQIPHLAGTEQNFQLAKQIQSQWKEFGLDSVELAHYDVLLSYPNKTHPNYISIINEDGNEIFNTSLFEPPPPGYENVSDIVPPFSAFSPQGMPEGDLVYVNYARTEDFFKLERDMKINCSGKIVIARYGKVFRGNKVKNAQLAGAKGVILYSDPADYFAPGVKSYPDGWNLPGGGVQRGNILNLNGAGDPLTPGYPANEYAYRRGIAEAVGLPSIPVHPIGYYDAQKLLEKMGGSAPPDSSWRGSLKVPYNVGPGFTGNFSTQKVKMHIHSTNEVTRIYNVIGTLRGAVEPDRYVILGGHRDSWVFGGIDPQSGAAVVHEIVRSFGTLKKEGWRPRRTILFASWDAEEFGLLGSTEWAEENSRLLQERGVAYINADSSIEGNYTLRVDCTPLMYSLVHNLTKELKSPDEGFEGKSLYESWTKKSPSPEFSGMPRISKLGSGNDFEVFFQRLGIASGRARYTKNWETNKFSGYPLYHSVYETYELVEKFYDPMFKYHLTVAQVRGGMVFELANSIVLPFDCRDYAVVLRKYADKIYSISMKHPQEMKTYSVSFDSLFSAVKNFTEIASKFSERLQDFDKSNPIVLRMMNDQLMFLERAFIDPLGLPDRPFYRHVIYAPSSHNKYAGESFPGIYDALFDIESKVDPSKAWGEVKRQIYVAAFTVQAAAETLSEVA

[2] = Toxicity in Balb/c nude mouse xenografted with human 22Rv1 cells assessed as animal death at 10 mg/kg, ip measured upto 30 days; assay type: organism-based, CWR22R; conditions: in vivo, 720 h, time < 30 day
[3] = Chronic toxicity in Soviet Chinchilla rabbit assessed as animal death administered intravenously as pluronic F127 formulation at 4 intervals for 21 days and observed one week post first injection; parameters: species or system Oryctolagus cuniculus; conditions: in vivo, iv, 168 h, time 7 day
[4] = Chronic toxicity in rat assessed as increase in relative mass of pancreas administered intravenously as pluronic F127 formulation at 4 intervals for 21 days and observed 3 weeks post last injection relative to control; assay type: tissue-based; conditions: in vivo, iv, 2544 h, time 106 day
[5] = Chronic toxicity in rat assessed as increase in relative mass of liver administered intravenously as pluronic F127 formulation at 4 intervals for 21 days and observed 3 weeks post last injection relative to control; assay type: tissue-based; conditions: in vivo, iv, 2544 h, time 106 day
[6] = Chronic toxicity in rat assessed as reduction in grooming frequency at 15.16 mg/kg, iv administered as pluronic F127 formulation at 4 intervals for 21 days and observed 3 weeks post last injection; assay type: organism-based; conditions: in vivo, 2544 h, time 106 day
DU-145 [7] = assay: Antitumor activity against human DU-145 cells xenografted in BALB/c nude mouse assessed as reduction in tumor growth index at 12.4 mg/kg, ip measured upto 30 days (reference value: 799 +/- 121.8 %); assay type: functional; parameters: scale not given: the % may be the effect or the level left; conditions: time <= 30 day
[8] = Chronic toxicity in rat assessed as increase in relative spleen mass administered intravenously as pluronic F127 formulation at 4 intervals for 21 days and observed 3 weeks post last injection relative to control; assay type: tissue-based; conditions: in vivo, iv, 2544 h, time 106 day
DU-145 [9] = assay: Antitumor activity against human DU-145 cells xenografted in BALB/c nude mouse assessed as reduction in tumor growth index at 24.8 mg/kg, ip measured upto 30 days (reference value: 799 +/- 121.8 %); assay type: functional; parameters: scale not given: the % may be the effect or the level left; conditions: time <= 30 day
[10] = Chronic toxicity in rat assessed as change in volume of excreted urine administered intravenously as pluronic F127 formulation at 4 intervals for 21 days and observed 3 weeks post last injection relative to control; conditions: in vivo, iv, 2544 h, time 106 day
[11] = Chronic toxicity in rat assessed as change in relative heart mass administered intravenously as pluronic F127 formulation at 4 intervals for 21 days and observed 3 weeks post last injection; assay type: tissue-based; conditions: in vivo, iv, 2544 h, time 106 day
DU-145 [12] = assay: Antitumor activity against human DU-145 cells xenografted in BALB/c nude mouse assessed as tumor growth inhibition at 12.4 mg/kg, ip measured upto 30 days; assay type: functional; conditions: DU-145, 720 h, time <= 30 day, read-out: TGI
[13] = Chronic toxicity in rat assessed as increase in relative mass of stomach administered intravenously as pluronic F127 formulation at 4 intervals for 21 days and observed 3 weeks post last injection relative to control; assay type: tissue-based; conditions: in vivo, iv, 2544 h, time 106 day
[14] = Toxicity in BALB/c nude mouse xenografted with human DU-145 cells assessed as animal death at 12.4 to 24.8 mg/kg, ip measured on day 8; assay type: organism-based; conditions: in vivo, dose 12.4-24.8 mg/kg, time 8 day, read-out: Activity
CWR22R [15] = assay: Effect on cell stiffness in human 22Rv1 cells assessed as increase in young's modulus at 1 nM measured after 1 hr by topography based scanning ion-conductance microscopic analysis; assay type: functional
[16] = Chronic toxicity in rat assessed as decrease in relative mass of testes administered intravenously as pluronic F127 formulation at 4 intervals for 21 days and observed 3 weeks post last injection relative to control; conditions: in vivo, iv, 2544 h, time 106 day
[17] = Chronic toxicity in rat assessed as increase in relative kidney weight administered intravenously as pluronic F127 formulation at 4 intervals for 21 days and observed 3 weeks post last injection; assay type: tissue-based; conditions: in vivo, iv, 2544 h, time 106 day
PC-3 [18] = assay: Induction of ROS generation in human PC-3 cells at 800 mV holding potential measured after 1 hr by patch clamp amplifier based optical inverted microscopic analysis; assay type: functional, cell-based
CWR22R [19] = assay: Antitumor activity against human 22Rv1 cells xenografted in Balb/c nude mouse assessed as tumor growth inhibition at 10 mg/kg, ip administered daily for 5 days and measured at day 34 relative to control; assay type: functional; parameters: scale not given: the % may be the effect or the level left; conditions: time 34 day
PC-3 [20] = assay: Cytotoxicity against human PC-3 cells assessed as reduction in cell viability measured after 72 hrs by MTT assay; assay type: functional
[21] = Chronic toxicity in rat assessed as increase in relative lung mass administered intravenously as pluronic F127 formulation for 4 intervals of 21 days and observed 3 weeks post last injection relative to control; conditions: in vivo, iv, 2544 h, time 106 day
CWR22R [22] = assay: Cytotoxicity against human 22Rv1 cells assessed as reduction in cell viability measured after 72 hrs by MTT assay; assay type: functional
DU-145 [23] = assay: Antitumor activity against human DU-145 cells xenografted in BALB/c nude mouse assessed as tumor growth inhibition at 24.8 mg/kg, ip measured upto 30 days; assay type: functional; conditions: DU-145, 720 h, time <= 30 day, read-out: TGI
[24] = Chronic toxicity in rat assessed as change in alkaline phosphatase level at […], iv administered as pluronic F127 formulation at 4 intervals for 21 days and observed 3 weeks post last injection relative to control; assay type: organism-based; conditions: in vivo, 2544 h, time 106 day
[25] = Chronic toxicity in rat assessed as increase in relative mass of adrenal gland administered intravenously as pluronic F127 formulation at 4 intervals for 21 days and observed 3 weeks post last injection relative to control; assay type: tissue-based; conditions: in vivo, iv, 2544 h, time 106 day
[26] = Chronic toxicity in rat assessed as change in erythrocytes in blood administered intravenously as pluronic F127 formulation at 4 intervals for 21 days and observed 3 weeks post last injection relative to control; assay type: cell-based; conditions: iv, 2544 h, time 106 day
PC-3 [27] = assay: Effect on cell stiffness in human PC-3 cells assessed as increase in young's modulus at 1 nM measured after 1 hr by topography based scanning ion-conductance microscopic analysis; assay type: functional
[28] = Acute toxicity in iv dosed ICR mouse assessed as lethal dose; assay type: organism-based; conditions: in vivo
[29] = Chronic toxicity in rat assessed as increase in creatinine concentration at […], iv administered as pluronic F127 formulation at 4 intervals for 21 days and observed 3 weeks post last injection relative to control; assay type: organism-based; conditions: in vivo, 2544 h, time 106 day
[30] = Selectivity ratio of CC50 for cytotoxicity against human PC-3 cells to CC50 for cytotoxicity against human 22Rv1 cells
[31] = Chronic toxicity in rat assessed as reduction in getting up frequency at 15.16 mg/kg, iv administered as pluronic F127 formulation at 4 intervals for 21 days and observed 3 weeks post last injection; assay type: organism-based; conditions: in vivo, 2544 h, time 106 day
[32] = Chronic toxicity in rat assessed as neurological disorder administered intravenously as pluronic F127 formulation at 4 intervals for 21 days and observed 3 weeks post last injection; conditions: in vivo, iv, 2544 h, time 106 day
[33] = Aqueous solubility of compound; assay type: physicochemical
[34] = Chronic toxicity in rat assessed as hair loss administered intravenously as pluronic F127 formulation at 4 intervals for 21 days and observed 3 weeks post last injection; conditions: in vivo, iv, 2544 h, time 106 day
[35] = Chronic toxicity in rat assessed as increase in relative brain mass administered intravenously as pluronic F127 formulation at 4 intervals for 21 days and observed 3 weeks post last injection relative to control; assay type: tissue-based; conditions: in vivo, iv, 2544 h, time 106 day

## [N-]=[N+]=NCCCNC(=O)[C@H](Cc1ccc(O)cc1)NC(=O)[C@H](Cc1ccccc1)NC(=O)CCC(=O)NCCCCCC(=O)N(CCCC[C@H](NC(=O)N[C@@H](CCC(=O)O)C(=O)O)C(=O)O)Cc1cccc(Cl)c1
[1]
  IC50: 9 nM

## CC(=O)O[C@@]12CO[C@@H]1C[C@H](O)[C@@]1(C)C(=O)[C@H](O)C3=C(C)[C@@H](OC(=O)[C@H](O)[C@@H](NC(=O)OC(C)(C)C)c4ccccc4)C[C@@](O)([C@@H](OC(=O)c4ccccc4)[C@H]21)C3(C)C [DOCETAXEL ANHYDROUS]
[2]
  Activity: Toxic
[3]
  Activity: Toxic
[4]
  Activity: Toxic
[5]
  Activity: Toxic
[6]
  Activity: Toxic
DU-145 [7]
  Activity: 261.3%
[8]
  Activity: Non-Toxic
DU-145 [9]
  Activity: 84.8%
[10]
  Activity: Toxic
[11]
  Activity: Non-Toxic
DU-145 [12]
  inhibition in vivo at 12.4 mg/kg: 47.1%
[13]
  Activity: Toxic
[14]
  mortality at 192 h: 100%
CWR22R [15]
  Activity: Active
[16]
  Activity: Non-Toxic
[17]
  Activity: Toxic
PC-3 [18]
  Activity: Active
CWR22R [19]
  Activity: 88%
PC-3 [20]
  CC50: 1 nM
[21]
  Activity: Toxic
CWR22R [22]
  CC50: 1 nM
DU-145 [23]
  inhibition in vivo at 24.8 mg/kg: 73.5%
[24]
  Activity: Toxic
[25]
  Activity: Toxic
[26]
  Activity: Non-Toxic
PC-3 [27]
  Activity: Active
[28]
  LD50: 138 mg/kg and 171 µmol/kg
[29]
  Activity: Toxic
[30]
  Selectivity ratio: 1
[31]
  Activity: Toxic
[32]
  Activity: Toxic
[33]
  solubility: 3 µg/mL (≈ 3.71 µM)
[34]
  Activity: Toxic
[35]
  Activity: Toxic

## CC(=O)O[C@@]12CO[C@@H]1C[C@H](O)[C@@]1(C)C(=O)[C@H](O)C3=C(C)[C@@H](OC(=O)[C@H](OC(=O)CCCc4cn(CCCNC(=O)[C@@H](Cc5ccccc5)NC(=O)[C@@H](Cc5ccccc5)NC(=O)CCC(=O)NCCCCCC(=O)N(CCCC[C@H](NC(=O)N[C@@H](CCC(=O)O)C(=O)O)C(=O)O)Cc5ccc(Cl)c(F)c5)nn4)[C@@H](NC(=O)OC(C)(C)C)c4ccccc4)C[C@@](O)([C@@H](OC(=O)c4ccccc4)[C@H]21)C3(C)C
PC-3 [20]
  CC50: 52 nM
CWR22R [22]
  CC50: 29 nM
[30]
  Selectivity ratio: 1.8

## CC(=O)O[C@@]12CO[C@@H]1C[C@H](O)[C@@]1(C)C(=O)[C@H](O)C3=C(C)[C@@H](OC(=O)[C@H](OC(=O)CCCc4cn(CCCNC(=O)[C@H](Cc5ccccc5)NC(=O)[C@H](Cc5ccccc5)NC(=O)CCC(=O)NCCCCCC(=O)N(CCCC[C@H](NC(=O)N[C@@H](CCC(=O)O)C(=O)O)C(=O)O)Cc5ccccc5)nn4)[C@@H](NC(=O)OC(C)(C)C)c4ccccc4)C[C@@](O)([C@@H](OC(=O)c4ccccc4)[C@H]21)C3(C)C (single isomer, unassigned)
PC-3 [20]
  CC50: 20 nM
CWR22R [22]
  CC50: 13 nM
[30]
  Selectivity ratio: 1.5
